# In PMC9234961 (Journal of Medicinal Chemistry, 2022):
# Like-named read-outs stand apart in the source and are kept apart here.
# Legend:
# kinases (468) [1] = target: kinases (468) (Homo sapiens, UniProt O00444); settings: PLK4; 1000 nM
# kinases (468) [2] = target: kinases (468) (Homo sapiens, UniProt O00750); settings: PIK3C2B; 1000 nM
# kinases (468) [3] = target: kinases (468) (Homo sapiens, UniProt O43318); settings: kinase TAK1 (Entrez MAP3K7); compound concentration 1000 nM
# kinases (468) [4] = target: kinases (468) (Homo sapiens, UniProt O60674); settings: JAK2(JH1domain-catalytic); 1000 nM
# kinases (468) [5] = target: kinases (468) (Homo sapiens, UniProt O75747); settings: PIK3C2G; 1000 nM
# kinases (468) [6] = target: kinases (468) (Homo sapiens, UniProt P00519, H396P); settings: 1000 nM
# kinases (468) [7] = target: kinases (468) (Homo sapiens, UniProt P21127); settings: CDC2L1 (CDK11B); 1000 nM
# kinases (468) [8] = target: kinases (468) (Homo sapiens, UniProt P21860); settings: ERBB3; 1000 nM
# kinases (468) [9] = target: kinases (468) (Homo sapiens, UniProt P31751); settings: AKT2; 1000 nM
# kinases (468) [10] = target: kinases (468) (Homo sapiens, UniProt P35590); settings: kinase TIE1 (Entrez TIE1); compound concentration 1000 nM
# kinases (468) [11] = target: kinases (468) (Homo sapiens, UniProt P36888, K663Q); settings: FLT3(K663Q); 1000 nM
# kinases (468) [12] = target: kinases (468) (Homo sapiens, UniProt P36896); settings: ACVR1B; 1000 nM
# kinases (468) [13] = target: kinases (468) (Homo sapiens, UniProt P42336, E542K); settings: PIK3CA(E542K); 1000 nM
# kinases (468) [14] = target: kinases (468) (Homo sapiens, UniProt P53778); settings: p38-gamma (MAPK12); 1000 nM
# kinases (468) [15] = target: kinases (468) (Homo sapiens, UniProt Q04912); settings: MST1R; 1000 nM
# kinases (468) [16] = target: kinases (468) (Homo sapiens, UniProt Q05655); settings: PRKCD; 1000 nM
# kinases (468) [17] = target: kinases (468) (Homo sapiens, UniProt Q12851); settings: MAP4K2; 1000 nM
# kinases (468) [18] = target: kinases (468) (Homo sapiens, UniProt Q13470); settings: kinase TNK1 (Entrez TNK1); compound concentration 1000 nM
# kinases (468) [19] = target: kinases (468) (Homo sapiens, UniProt Q14004); settings: CDC2L5 (CDK13); 1000 nM
# kinases (468) [20] = target: kinases (468) (Homo sapiens, UniProt Q14289); settings: PYK2 (PTK2B); 1000 nM
# kinases (468) [21] = target: kinases (468) (Homo sapiens, UniProt Q15375); settings: EPHA7; 1000 nM
# kinases (468) [22] = target: kinases (468) (Homo sapiens, UniProt Q6DT37); settings: DMPK2 (CDC42BPG); 1000 nM
# kinases (468) [23] = target: kinases (468) (Homo sapiens, UniProt Q6P2M8); settings: CAMK1B (PNCK); 1000 nM
# kinases (468) [24] = target: kinases (468) (Homo sapiens, UniProt Q86UE8); settings: kinase TLK2 (Entrez TLK2); compound concentration 1000 nM
# kinases (468) [25] = target: kinases (468) (Homo sapiens, UniProt Q8TD19); settings: NEK9; 1000 nM
# kinases (468) [26] = target: kinases (468) (Homo sapiens, UniProt Q96PN8); settings: kinase TSSK3 (Entrez TSSK3); compound concentration 1000 nM
# kinases (468) [27] = target: kinases (468) (Homo sapiens, UniProt Q96PY6); settings: NEK1; 1000 nM
# kinases (468) [28] = target: kinases (468) (Homo sapiens, UniProt Q96SB4); settings: kinase SRPK1 (Entrez SRPK1); compound concentration 1000 nM
# kinases (468) [29] = target: kinases (468) (Homo sapiens, UniProt Q9BRS2); settings: kinase RIOK1 (Entrez RIOK1); compound concentration 1000 nM
# kinases (468) [30] = target: kinases (468) (Homo sapiens, UniProt Q9BZL6); settings: PRKD2; 1000 nM
# kinases (468) [31] = target: kinases (468) (Homo sapiens, UniProt Q9UEE5); settings: DRAK1 (STK17A); 1000 nM
# kinases (468) [32] = target: kinases (468) (Homo sapiens, UniProt Q9Y2H1); settings: NDR2 (STK38L); 1000 nM
# kinases (468) [33] = target: kinases (468) (Homo sapiens, UniProt Q9Y616); settings: IRAK3; 1000 nM
# kinases (468) [34] = target: kinases (468) (Mycobacterium tuberculosis, UniProt P9WI81); settings: PKNB(M.tuberculosis) (pknB); 1000 nM
# kinases (468) (Homo sapiens, UniProt Q9BRS2), sequence (Q9BRS2 whole entry): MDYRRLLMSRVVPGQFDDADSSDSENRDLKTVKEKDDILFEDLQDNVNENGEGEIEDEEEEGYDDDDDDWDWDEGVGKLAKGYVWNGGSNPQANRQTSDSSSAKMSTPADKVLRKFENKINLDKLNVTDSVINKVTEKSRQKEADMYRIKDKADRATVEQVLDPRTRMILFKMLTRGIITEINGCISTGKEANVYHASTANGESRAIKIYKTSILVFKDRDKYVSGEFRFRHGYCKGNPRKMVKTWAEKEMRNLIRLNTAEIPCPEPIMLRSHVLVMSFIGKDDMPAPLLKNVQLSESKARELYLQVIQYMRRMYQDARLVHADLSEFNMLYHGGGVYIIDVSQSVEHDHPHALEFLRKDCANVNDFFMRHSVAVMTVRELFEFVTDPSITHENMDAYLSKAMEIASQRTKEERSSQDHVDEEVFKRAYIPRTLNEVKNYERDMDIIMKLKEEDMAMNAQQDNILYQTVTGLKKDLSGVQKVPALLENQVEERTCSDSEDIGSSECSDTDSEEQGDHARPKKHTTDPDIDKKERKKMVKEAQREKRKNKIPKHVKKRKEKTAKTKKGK
# kinases (468) (Homo sapiens, UniProt O60674), sequence (O60674 whole entry): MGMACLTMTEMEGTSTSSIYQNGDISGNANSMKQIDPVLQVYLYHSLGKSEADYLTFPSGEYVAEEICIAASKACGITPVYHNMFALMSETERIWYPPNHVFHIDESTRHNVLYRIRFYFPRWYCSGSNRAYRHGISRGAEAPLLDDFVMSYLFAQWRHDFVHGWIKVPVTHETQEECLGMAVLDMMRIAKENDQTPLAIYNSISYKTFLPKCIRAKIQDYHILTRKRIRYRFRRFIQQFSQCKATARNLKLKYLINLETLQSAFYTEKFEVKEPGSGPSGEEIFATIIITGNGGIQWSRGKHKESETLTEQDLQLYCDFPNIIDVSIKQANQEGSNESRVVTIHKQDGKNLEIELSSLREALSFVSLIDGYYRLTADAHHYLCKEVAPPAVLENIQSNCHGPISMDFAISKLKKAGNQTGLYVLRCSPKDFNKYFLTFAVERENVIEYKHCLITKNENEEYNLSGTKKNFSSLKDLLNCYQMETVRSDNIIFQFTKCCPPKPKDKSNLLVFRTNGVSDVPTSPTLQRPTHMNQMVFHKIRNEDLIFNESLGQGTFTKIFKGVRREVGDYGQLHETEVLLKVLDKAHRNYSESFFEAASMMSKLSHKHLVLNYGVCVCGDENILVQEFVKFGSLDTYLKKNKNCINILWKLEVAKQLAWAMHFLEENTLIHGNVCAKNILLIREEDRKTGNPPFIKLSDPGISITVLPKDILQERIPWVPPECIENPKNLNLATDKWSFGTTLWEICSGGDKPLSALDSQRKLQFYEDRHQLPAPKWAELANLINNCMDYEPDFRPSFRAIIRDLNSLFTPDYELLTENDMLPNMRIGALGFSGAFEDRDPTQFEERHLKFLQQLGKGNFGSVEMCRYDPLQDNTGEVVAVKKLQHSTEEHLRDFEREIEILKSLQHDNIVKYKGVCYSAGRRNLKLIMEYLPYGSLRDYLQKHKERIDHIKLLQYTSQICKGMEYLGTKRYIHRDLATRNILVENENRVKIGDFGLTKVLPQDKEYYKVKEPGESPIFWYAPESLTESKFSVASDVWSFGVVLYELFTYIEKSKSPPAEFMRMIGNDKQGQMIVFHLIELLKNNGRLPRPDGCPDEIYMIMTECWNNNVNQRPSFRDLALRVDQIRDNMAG
# kinases (468) (Homo sapiens, UniProt Q86UE8), sequence (Q86UE8 whole entry): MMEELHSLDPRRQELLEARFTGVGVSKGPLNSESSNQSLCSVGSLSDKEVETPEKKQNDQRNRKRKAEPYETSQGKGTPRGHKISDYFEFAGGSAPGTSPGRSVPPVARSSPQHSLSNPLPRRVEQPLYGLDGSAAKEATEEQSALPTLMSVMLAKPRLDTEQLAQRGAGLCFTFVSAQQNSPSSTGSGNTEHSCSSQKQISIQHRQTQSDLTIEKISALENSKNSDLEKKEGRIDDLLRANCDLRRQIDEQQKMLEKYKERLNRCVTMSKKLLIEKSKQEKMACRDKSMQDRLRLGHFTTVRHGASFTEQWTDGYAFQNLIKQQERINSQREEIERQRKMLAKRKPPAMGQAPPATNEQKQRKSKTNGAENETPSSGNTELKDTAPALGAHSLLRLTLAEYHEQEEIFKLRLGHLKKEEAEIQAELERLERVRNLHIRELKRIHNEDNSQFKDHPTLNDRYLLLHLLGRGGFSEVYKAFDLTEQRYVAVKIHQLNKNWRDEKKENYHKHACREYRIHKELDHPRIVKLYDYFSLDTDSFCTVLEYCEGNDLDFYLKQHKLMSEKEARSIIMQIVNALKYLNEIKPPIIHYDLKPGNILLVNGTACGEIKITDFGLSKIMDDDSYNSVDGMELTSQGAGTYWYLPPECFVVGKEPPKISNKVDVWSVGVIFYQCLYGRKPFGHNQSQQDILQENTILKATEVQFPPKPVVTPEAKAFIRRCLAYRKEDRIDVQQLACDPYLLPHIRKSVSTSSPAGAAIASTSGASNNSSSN
# kinases (468) (Homo sapiens, UniProt P21860), sequence (P21860 20-1342): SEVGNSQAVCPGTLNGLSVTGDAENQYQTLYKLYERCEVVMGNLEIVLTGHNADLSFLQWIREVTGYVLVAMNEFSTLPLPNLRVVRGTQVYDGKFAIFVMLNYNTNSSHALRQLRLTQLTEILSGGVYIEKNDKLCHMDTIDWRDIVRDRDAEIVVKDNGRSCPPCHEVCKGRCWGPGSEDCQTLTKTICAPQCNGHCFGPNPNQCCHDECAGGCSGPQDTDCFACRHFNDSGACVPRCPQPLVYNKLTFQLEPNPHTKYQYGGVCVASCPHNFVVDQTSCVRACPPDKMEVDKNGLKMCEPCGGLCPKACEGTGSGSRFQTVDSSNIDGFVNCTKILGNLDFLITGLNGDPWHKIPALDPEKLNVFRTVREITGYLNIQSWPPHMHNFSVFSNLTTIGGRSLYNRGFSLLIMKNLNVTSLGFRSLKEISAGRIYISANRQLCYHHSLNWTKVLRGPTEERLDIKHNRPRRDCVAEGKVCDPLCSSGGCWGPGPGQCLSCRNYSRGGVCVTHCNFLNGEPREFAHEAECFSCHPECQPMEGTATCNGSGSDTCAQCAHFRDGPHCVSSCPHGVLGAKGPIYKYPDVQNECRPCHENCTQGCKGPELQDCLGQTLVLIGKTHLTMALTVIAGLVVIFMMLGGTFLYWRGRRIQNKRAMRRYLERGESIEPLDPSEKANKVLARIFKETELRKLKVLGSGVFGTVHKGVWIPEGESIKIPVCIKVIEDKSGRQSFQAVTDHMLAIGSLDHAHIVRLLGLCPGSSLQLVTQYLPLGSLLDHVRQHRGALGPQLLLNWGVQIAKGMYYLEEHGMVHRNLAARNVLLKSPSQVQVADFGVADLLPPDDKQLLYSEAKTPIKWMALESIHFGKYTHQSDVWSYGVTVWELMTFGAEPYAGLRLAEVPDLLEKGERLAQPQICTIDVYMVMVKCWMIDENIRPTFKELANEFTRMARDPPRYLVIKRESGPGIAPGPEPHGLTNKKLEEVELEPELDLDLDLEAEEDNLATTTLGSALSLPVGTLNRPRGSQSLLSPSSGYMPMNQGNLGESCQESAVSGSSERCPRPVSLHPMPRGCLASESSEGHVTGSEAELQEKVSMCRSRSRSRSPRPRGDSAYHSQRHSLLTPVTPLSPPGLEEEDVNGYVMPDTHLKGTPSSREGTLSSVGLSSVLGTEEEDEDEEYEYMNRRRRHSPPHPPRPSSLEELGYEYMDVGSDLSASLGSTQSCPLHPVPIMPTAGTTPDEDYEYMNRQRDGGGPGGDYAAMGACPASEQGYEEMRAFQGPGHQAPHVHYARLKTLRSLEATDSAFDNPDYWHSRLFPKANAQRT
# kinases (468) (Homo sapiens, UniProt Q14289), sequence (Q14289 whole entry): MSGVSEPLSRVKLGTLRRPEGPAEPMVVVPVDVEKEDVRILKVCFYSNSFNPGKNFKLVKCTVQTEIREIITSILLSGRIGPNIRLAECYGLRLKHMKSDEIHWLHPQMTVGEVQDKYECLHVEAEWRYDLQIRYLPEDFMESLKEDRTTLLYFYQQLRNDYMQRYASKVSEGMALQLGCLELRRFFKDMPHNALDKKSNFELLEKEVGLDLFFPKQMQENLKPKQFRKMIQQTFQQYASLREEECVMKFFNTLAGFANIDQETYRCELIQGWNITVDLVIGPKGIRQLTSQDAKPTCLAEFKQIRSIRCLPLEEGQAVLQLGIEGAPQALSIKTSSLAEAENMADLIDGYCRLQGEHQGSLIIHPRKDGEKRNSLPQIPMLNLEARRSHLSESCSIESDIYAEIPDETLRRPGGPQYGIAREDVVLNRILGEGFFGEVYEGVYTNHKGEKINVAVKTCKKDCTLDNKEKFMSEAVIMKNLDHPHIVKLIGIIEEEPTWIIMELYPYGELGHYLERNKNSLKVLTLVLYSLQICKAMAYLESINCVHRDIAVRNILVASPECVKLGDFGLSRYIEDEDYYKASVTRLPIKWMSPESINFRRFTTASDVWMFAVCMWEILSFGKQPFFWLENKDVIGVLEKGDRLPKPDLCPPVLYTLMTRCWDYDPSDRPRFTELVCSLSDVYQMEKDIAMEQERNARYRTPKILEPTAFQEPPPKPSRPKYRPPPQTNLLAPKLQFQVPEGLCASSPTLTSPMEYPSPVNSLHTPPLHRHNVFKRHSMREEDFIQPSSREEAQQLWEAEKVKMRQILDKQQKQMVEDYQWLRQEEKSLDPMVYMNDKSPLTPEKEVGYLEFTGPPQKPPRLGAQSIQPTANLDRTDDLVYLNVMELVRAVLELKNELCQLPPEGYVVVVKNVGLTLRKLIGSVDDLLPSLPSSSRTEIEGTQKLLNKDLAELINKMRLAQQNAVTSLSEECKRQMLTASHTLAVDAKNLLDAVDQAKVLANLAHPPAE
# kinases (468) (Homo sapiens, UniProt Q96PN8), sequence (Q96PN8 whole entry): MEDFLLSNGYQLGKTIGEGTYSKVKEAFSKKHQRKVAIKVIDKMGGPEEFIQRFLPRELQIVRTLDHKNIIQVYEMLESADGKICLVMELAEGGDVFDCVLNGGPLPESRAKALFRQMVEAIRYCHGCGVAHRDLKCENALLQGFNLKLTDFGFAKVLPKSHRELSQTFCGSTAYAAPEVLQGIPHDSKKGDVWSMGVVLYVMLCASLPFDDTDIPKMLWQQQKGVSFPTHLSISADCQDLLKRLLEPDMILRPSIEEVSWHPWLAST
smiles,measurement,setting,value
C[C@H]1C[C@@H](O)CN(c2ncc(Cl)c(Nc3ccc4c(c3)c3c(c(=O)n4C)OCC(F)(F)[C@H](C4CC4)N3)n2)C1 [CCT373566_9A],Percent Control,kinases (468) [1],100%
same,Percent Control,kinases (468) [2],100%
same,Percent Control,kinases (468) [3],100%
same,Percent Control,kinases (468) [4],97%
same,Percent Control,kinases (468) [5],86%
same,Percent Control,kinases (468) [6]; ABL1(H396P)-nonphosphorylated,83%
same,Percent Control,kinases (468) [6]; ABL1(H396P)-phosphorylated,94%
same,Percent Control,kinases (468) [7],100%
same,Percent Control,kinases (468) [8],85%
same,Percent Control,kinases (468) [9],100%
same,Percent Control,kinases (468) [10],100%
same,Percent Control,kinases (468) [11],97%
same,Percent Control,kinases (468) [12],100%
same,Percent Control,kinases (468) [13],83%
same,Percent Control,kinases (468) [14],92%
same,Percent Control,kinases (468) [15],91%
same,Percent Control,kinases (468) [16],100%
same,Percent Control,kinases (468) [17],99%
same,Percent Control,kinases (468) [18],92%
same,Percent Control,kinases (468) [19],99%
same,Percent Control,kinases (468) [20],98%
same,Percent Control,kinases (468) [21],100%
same,Percent Control,kinases (468) [22],100%
same,Percent Control,kinases (468) [23],69%
same,Percent Control,kinases (468) [24],100%
same,Percent Control,kinases (468) [25],95%
same,Percent Control,kinases (468) [26],72%
same,Percent Control,kinases (468) [27],98%
same,Percent Control,kinases (468) [28],83%
same,Percent Control,kinases (468) [29],78%
same,Percent Control,kinases (468) [30],94%
same,Percent Control,kinases (468) [31],99%
same,Percent Control,kinases (468) [32],98%
same,Percent Control,kinases (468) [33],100%
same,Percent Control,kinases (468) [34],100%
